Marks after values point to notes of the source that are not given here.
Assays:
PhiX174 [1] = assay: PhiX174 reduction in plasma with riboflavin, UV-illuminated flow-through flow cells; details: for pathogen reduction (log reduction of PhiX174): plasma + riboflavin, irradiance 4.5 mW/cm2
Description: The goal of this study is to obtain insight into the correlation between flow rate, channel thickness and pathogen reduction. The flow cells in this study have a relatively thicker channel and different flow configurations.
The flow cell mounts in a fixture (e.g., flow cell holder) which maintains channel thickness by applying pressure from both the top and bottom. The fixture houses eight illumination lamps driven at 800 mA with four on top and four on bottom producing an irradiance of 4.5 mW/cm2. Product can be flowed through the flow-cell, which is mounted adjacent to the light source, and then samples are taken on the back end.
The increased channel thickness results in decreased fluidic impedance requiring the use of a peristaltic pump to control flow rate instead of by gravity. The pump is calibrated prior to use to ensure flow rate accuracy.
1.5.5. Submit one sample tube for each sample for viral titer and save the other two samples for later analysis.
Below are the pathogen reduction results. In Table 6, cells with bold text indicate a sample that is within the limit of detection and cells with an asterisk indicate a sample that has six or less PhiX174 colonies at a one log dilution and is outside the limit of detection. Cells with underlined text indicate a sample is technically outside the limit of detection but has PhiX174 colonies allowing for the inferred calculation of pathogen reduction. Each cell also has dwell time in seconds and predicted dose. The lower predicted dose value takes into account the transmissivity of the plasma and flow cell. The higher predicted dose assumes that all light incident on the flow cell is absorbed by the plasma.

PhiX174 [2] = assay: PhiX174 reduction in whole blood with riboflavin, UV-illuminated flow-through flow cells
Description: This study is designed to obtain insight into the correlation between flow rate, channel thickness and pathogen reduction of whole blood. The flow cells in this study have thin channels and different flow configurations. Thin channels are used because whole blood is less transmissive than plasma.
The flow cell mounts in a fixture (e.g. a flow cell holder) which maintains channel thickness by applying pressure from both the top and bottom. The fixture houses eight illumination lamps driven at 800 mA with four on top and four on bottom producing an irradiance of 4.5 mW/cm^2. Product can be flowed through the flow-cell, which is mounted adjacent to the light source, and then samples can be taken on the back end.
A peristaltic pump to control flow rate is used with the pump will located after the flow cell so that negative pressure is applied to the flow cell by the pump instead of positive pressure. The pump is calibrated prior to use to ensure flow rate accuracy.
Two flow cell configurations being tested may be referred to as “8p” and “4s×2p”. The 8p configuration has all the channels in parallel; therefore the fluid crosses one channel before exiting the flow cell. The 4s×2p configuration requires the fluid to cross four channels in series before exiting the flow cell. […]

Structure (SMILES): Cc1cc2nc3c(=O)[nH]c(=O)nc-3n(C[C@H](O)[C@H](O)[C@H](O)CO)c2cc1C [riboflavin]
- pathogen reduction (log reduction of PhiX174) (PhiX174 [1]; flow cell A, gap 3/1000" (0.0762 mm), flow rate 20 ml/min, dwell 2.9 sec): (~3.4 logs)*
- pathogen reduction (log reduction of PhiX174) (PhiX174 [1]; flow cell A, gap 3/1000" (0.0762 mm), flow rate 40 ml/min, dwell 1.5 sec): (2.8 logs)*
- pathogen reduction (log reduction of PhiX174) (PhiX174 [1]; flow cell B, gap 5/1000" (0.127 mm), flow rate 20 ml/min, dwell 4.9 sec): (~3.6 logs)*
- pathogen reduction (log reduction of PhiX174) (PhiX174 [1]; flow cell B, gap 5/1000" (0.127 mm), flow rate 40 ml/min, dwell 2.43 sec): (2.6 logs)*
- pathogen reduction (log reduction of PhiX174) (PhiX174 [1]; flow cell C, gap 12/1000" (0.305 mm), flow rate 40 ml/min, dwell 5.8 sec): (~3.9 logs)*
- pathogen reduction (log reduction of PhiX174) (PhiX174 [1]; flow cell C, gap 12/1000" (0.305 mm), flow rate 80 ml/min, dwell 2.9 sec): (2.5 logs)*
- pathogen reduction (log reduction of PhiX174) (PhiX174 [1]; flow cell D, gap 20/1000" (0.508 mm), flow rate 80 ml/min, dwell 4.7 sec): (2.9 logs)*
- pathogen reduction, in words (PhiX174 [1]; plasma and riboflavin, all flow cells A-D): adequate pathogen reduction
- hemolysis, difference from hold control (whole blood): ≤ 0.06 % hemolysis
- pathogen reduction, in words (PhiX174 [2]): within the acceptable pathogen reduction range
